Results as given in patent publication US20110166206A1, “UBIQUILIN REGULATION OF PRESENILIN ENDOPROTEOLYSIS, AND SUPPRESSION OF POLYGLUTAMINE-INDUCED TOXICITY IN CELLS” (UNIVERSITY OF MARYLAND BIOTECHNOLOGY INSTITUTE, priority 2005, published 2011).

System: PS2 NTF
Assay: Cycloheximide time course of PS2 fragment production in PS2 inducible cells with or without UBQLN1 transfection
Assay type: cell-based, human
Method: (A) Time course experiment using ponA-induced PS2 cell line cultures transfected with or without UBQLN1 expression plasmids were treated with […] cycloheximide for 0-6 hours. Equal amounts of protein lysate were separated by 8.5% SDS-PAGE and subsequently immunoblotted with anti-UBQLN antibody. Transfected cells reveal a 4-fold increase in UBQLN1 levels. Next, the protein lysates were immunoblotted using anti-PS2 NH,-terminal antibody to detect FL and NTF PS2 levels, as indicated. Note both FL PS2 turnover and NTF production levels in transfected versus untransfected cell lysates.
(B) Same experiment as (A) except FL PS expression was not induced using PonA.
(C) Graphs showing relative levels of PS2 polypeptides in PS2 inducible cell lysates after densitometric analysis of the immunoreactive bands shown in panels A and B. The levels were calculated by normalization of the signals relative to that in Lane 1. The Microsoft Excel program was used to produce a best-fit line for each graph. […] However, this is completely opposite of NTF levels. UBQLN not only decreases NTF levels at every time-point in the experiment, but it also slows the rate of NTF production, as determined by measuring the slope of each line.
HeLa and HEK293 cells were grown in DMEM supplemented with 10% FBS. PS1 and S2 inducible cell lines were generated by transfection of the pERV-expressing HEK293 cell line (Stratgene, IaIolla, Calif.) with FL human PS2 cDNA under the control of ponasteroneA (PonA)-inducible cassette in plasmid pEGSH (Stratagene). Stable integration of the pEGSH plasmid was achieved by selection for hygromycin resistance. PS expression was induced by adding PonA (final cont. 10 pM) to the medium. For proteasome inhibition studies, cultures were treated with 40 uM MG132 (Calbiochem, San Diego, Calif.) for time periods as indicated. […]
To this end, protein synthesis was inhibited using cyclohexamide (CHX) and PS fragment production was monitored over a six-hour time period in UBQLN transfected and untransfected lysates that were either induced or uninduced for PS expression. […]

## UBQLN1: PS-interacting protein ubiquilin-1, overexpressed in cells from a cDNA expression plasmid
PS induced and uninduced cells treated with CHX
  rate of PS2 NTF production: slows the rate of PS2 NTF production
Transfected vs untransfected, UBQLN immunoblot
  UBQLN1 overexpression level in transfected lysates: 4 fold
